This is an account of results in EP0066373A1, “Beta-lactam derivatives, a process for their preparation and compositions containing them” (BEECHAM GROUP PLC, priority 1981, dated 1982).

By MIC is commonly meant the smallest concentration in the dilution series that meets the test's criterion for growth inhibition.

Common to all, as to format: cell-based
One assay deals with S. marcescens US 32. Briefly: Antibacterial activity (MIC). The settings on record: Serratia marcescens, US32, Agar.
A further assay deals with E. coli NCTC 10418. In words: Antibacterial activity (MIC). The settings on record: Escherichia coli.
Assay [1] relates to Ps. aeruginosa Dalgleish 10^-2. Briefly: Antibacterial activity (MIC), 10^-2. The settings on record: Pseudomonas aeruginosa, Agar.
The next assay concerns E. coli ESS. In words: Antibacterial activity (MIC). The settings on record: Escherichia coli, Agar.
The subject of the next assay is K. aerogenes A. Briefly: Antibacterial activity (MIC). The settings on record: Klebsiella aerogenes.
Assay [2] relates to Ps. aeurginosa NCTC 10662. Briefly: Antibacterial activity (MIC).
A further assay relates to E. cloacae N1. In words: Antibacterial activity (MIC). The settings on record: Enterobacter cloacae, Agar.
The subject of a further assay is E. coli JT 425. Briefly: Antibacterial activity (MIC). The settings on record: Escherichia coli, JT425, Agar.
In assay [3] the test system is Ps. aeruginosa NCTC 10662 10^-2. Briefly: Antibacterial activity (MIC), 10^-2. The settings on record: Pseudomonas aeruginosa.
For a further assay, the system named is E. coli JT 4. Briefly: Antibacterial activity (MIC). The settings on record: Escherichia coli, JT4, Agar.
In another assay the test system is P. mirabilis C 977. Briefly: Antibacterial activity (MIC). The settings on record: Proteus mirabilis, C977, Agar.

Turning to `CO[C@@]1(NC(=O)[C@@H](c2ccc(O)c(O)c2)S(=O)(=O)O)C(=O)N2[C@@H](C(=O)O)C(C)(C)S[C@@H]21` [Example 9, Disodium 6,β-[R-2-(3,4-dihydroxyphenyl)-2-sulphoacetamido] -6,a-methoxypenicillanate], the MIC was found to be 25 µg/mL in the assay with S. marcescens US 32; 2.5 µg/mL with E. coli NCTC 10418 (NCTC10418, Agar); 0.5 µg/mL in assay [1]; 0.1 µg/mL in the assay on E. coli ESS; 5 µg/mL with K. aerogenes A (Agar); 2.5 µg/mL in [2] (Agar). In addition, the minimum inhibitory concentration (MIC) against E. cloacae N1 was found to be 50 µg/mL; in the assay with E. coli JT 425 it was 1 µg/mL; in [3] (NCTC10662, Agar) it was 0.5 µg/mL; in the assay on E. coli JT 4, 2.5 µg/mL; against P. mirabilis C 977, 25 µg/mL.

In the case of `CO[C@@]1(NC(=O)C(c2ccc(OC(C)=O)c(OC(C)=O)c2)S(=O)(=O)O)C(=O)N2[C@@H](C(=O)O)C(C)(C)S[C@@H]21` (stereo partly drawn) [Example 3, Disodium 6,β-[R,S-2-(3,4-diacetoxyphenyl)-2-sulphoacetamido]-6,a-methoxypenicillanate], the minimum inhibitory concentration (MIC) against S. marcescens US 32 stood at 25 µg/mL; in the assay on E. coli NCTC 10418 (NCTC10418, Agar) it was 2.5 µg/mL; with E. coli NCTC 10418 (NCTC10418, Broth), 5 µg/mL; in [1], 2.5 µg/mL; with E. coli ESS, 0.2 µg/mL; against K. aerogenes A (Agar), 10 µg/mL. The MIC against K. aerogenes A (Broth) was 25 µg/mL; in assay [2] (Agar), 2.5 µg/mL; in assay [2] (Broth), 5 µg/mL; with E. cloacae N1, 50 µg/mL; in the assay on E. coli JT 425, 2.5 µg/mL; in assay [3] (NCTC10662, Agar), 2.5 µg/mL. The minimal inhibitory concentration (MIC) is 5 µg/mL in assay [3] (NCTC10662, Broth); 2.5 µg/mL in the assay on E. coli JT 4; 25 µg/mL in the assay on P. mirabilis C 977.

As to `CO[C@@]1(NC(=O)[C@@H](c2ccc(OC(C)=O)c(OC(C)=O)c2)S(=O)(=O)O)C(=O)N2[C@@H](C(=O)O)C(C)(C)S[C@@H]21` [Example 8, Disodium 6,β-[R-2-(3,4-diacetoxyphenyl)-2-sulphoacetamido]-6,a-methoxypenicillanate], the minimal inhibitory concentration (MIC) against S. marcescens US 32 was determined as 25 µg/mL; against E. coli NCTC 10418 (NCTC10418, Agar) it was 2.5 µg/mL; in the assay with E. coli NCTC 10418 (NCTC10418, Broth), 5 µg/mL; in assay [1] it was 0.5 µg/mL; against E. coli ESS, 0.2 µg/mL; in the assay with K. aerogenes A (Agar), 5 µg/mL. In addition, the MIC against K. aerogenes A (Broth) is 10 µg/mL; in assay [2] (Agar), 2.5 µg/mL; in assay [2] (Broth) it was 1 µg/mL; with E. cloacae N1 it was 25 µg/mL; against E. coli JT 425, 1 µg/mL; in assay [3] (NCTC10662, Agar), 0.5 µg/mL. Further, the MIC in assay [3] (NCTC10662, Broth) came out at 0.5 µg/mL; against E. coli JT 4, 2.5 µg/mL; against P. mirabilis C 977 it was 10 µg/mL.

As to `CO[C@@]1(NC(=O)C(c2ccc(O)c(O)c2)S(=O)(=O)O)C(=O)N2[C@@H](C(=O)O)C(C)(C)S[C@@H]21` (stereo partly drawn) [Example 4, Disodium 6,β-[R,S-2-(3,4-dihydroxyphenyl)-2-sulphoacetamido]-6,a-methoxypenicillanate], the MIC turned out to be 25 µg/mL in the assay with S. marcescens US 32; 5 µg/mL against E. coli NCTC 10418 (NCTC10418, Agar); 2.5 µg/mL in assay [1]; 0.5 µg/mL against E. coli ESS; 5 µg/mL in the assay with K. aerogenes A (Agar); 2.5 µg/mL in [2] (Agar). For the same compound, the MIC was found to be 50 µg/mL in the assay on E. cloacae N1; 5 µg/mL against E. coli JT 425; 5 µg/mL in assay [3] (NCTC10662, Agar); 5 µg/mL with E. coli JT 4; 25 µg/mL in the assay on P. mirabilis C 977.
